Target: Endothelial lipase (EL) (Homo sapiens (Human), UniProt Q9Y5X9)
Assay: Endothelial lipase (EL) enzymatic assay with fluorescent substrate A10070 in DMPG vesicles
Type: biochemical
In short: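 EL from conditioned medium of HT-1080 cells engineered to overexpress endogenous EL; HL partially purified from conditioned medium of HL-overexpressing COS cells. Enzyme preincubated with compound 30 min at 37° C in 50 mM HEPES pH 8.0, 50 mM NaCl, 1 mM CaCl2; DMPG vesicles carrying FRET substrate (0.11 mole fraction) then added.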

Chain of Endothelial lipase (EL) (Q9Y5X9 21-500): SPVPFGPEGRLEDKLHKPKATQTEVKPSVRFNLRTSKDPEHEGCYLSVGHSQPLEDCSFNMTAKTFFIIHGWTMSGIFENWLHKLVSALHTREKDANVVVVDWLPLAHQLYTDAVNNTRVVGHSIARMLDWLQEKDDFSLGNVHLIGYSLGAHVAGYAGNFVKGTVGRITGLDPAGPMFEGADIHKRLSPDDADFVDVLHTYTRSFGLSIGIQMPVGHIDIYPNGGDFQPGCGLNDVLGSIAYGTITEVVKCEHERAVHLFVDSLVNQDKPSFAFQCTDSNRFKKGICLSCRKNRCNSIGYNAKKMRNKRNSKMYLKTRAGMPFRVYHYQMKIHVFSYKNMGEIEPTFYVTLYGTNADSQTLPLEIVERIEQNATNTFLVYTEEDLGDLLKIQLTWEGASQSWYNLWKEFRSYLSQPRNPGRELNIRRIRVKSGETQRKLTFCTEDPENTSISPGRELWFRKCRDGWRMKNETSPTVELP

Row | SMILES | IC50 [nM]
1 | COCCS(=O)(=O)C(C(=O)NCC(=O)NC1CC1)c1nc2cc(-c3cccc(C(=O)N4CCN(C)CC4)c3)ccc2s1 (stereo not shown) [Example 397, N-[(cyclopropyl-carbamoyl)methyl]-2-(2-methoxyethane-sulfonyl)-2-{5-[3-(4-methylpiperazine-1-carbonyl)phenyl]-1,3-benzothiazol-2-yl}acetamide] | 19
2 | Cc1cc2nc(C(C(=O)NCC(=O)NC3CC3)S(=O)(=O)C(C)C)sc2cc1-c1ccc2cnn(C)c2c1 (stereo not shown) [Example 260, N-[(cyclopropyl-carbamoyl)methyl]-2-[5-methyl-6-(1-methyl-1H-indazol-6-yl)-1,3-benzothiazol-2-yl]-2-(propane-2-sulfonyl)acetamide] | 7
3 | COCCS(=O)(=O)C(C(=O)NCC(=O)NC1CC1)c1nc2cc(C(F)(F)F)c(-c3ccc(C4CC4)nc3)cc2s1 (stereo not shown) [Example 164, N-[(cyclopropyl-carbamoyl)methyl]-2-[6-(6-cyclopropyl-pyridin-3-yl)-5-(trifluoromethyl)-1,3-benzothiazol-2-yl]-2-(2-methoxyethane-sulfonyl) acetamide] | 17
4 | CC(C)n1cc(-c2ccc3nc(C(C(=O)NCC(=O)NC4CC4)S(=O)(=O)Cc4cccc(C#N)c4)sc3c2)ccc1=O (stereo not shown) [Example 230, 2-[(3-cyanophenyl)methanesulfonyl]-N-[(cyclopropyl-carbamoyl)methyl]-2-{6-[6-oxo-1-(propan-2-yl)-1,6-dihydropyridin-3-yl]-1,3-benzothiazol-2-yl}acetamide] | 46
5 | COCCS(=O)(=O)C(C(=O)NCC(=O)NC1CC1)c1nc2cc(-c3ccncc3Cl)ccc2s1 (stereo not shown) [Example 80, 2-[5-(3-chloropyridin-4-yl)-1,3-benzothiazol-2-yl]-N-[(cyclopropyl-carbamoyl)methyl]-2-(2-methoxyethane-sulfonyl) acetamide] | 49
6 | O=C(CNC(=O)C(c1nc2ccc(-c3ccc(F)nc3)cc2s1)S(=O)(=O)Cc1ccccc1F)NC1CC1 (stereo not shown) [Example 18, N-[(cyclopropyl-carbamoyl)methyl]-2-[(2-fluorophenyl)methanesulfonyl]-2-[6-(6-fluoropyridin-3-yl)-1,3-benzothiazol-2-yl]acetamide] | 253
7 | CC(C)S(=O)(=O)C(C(=O)NCC(=O)NC1CC1)c1nc2cc(C(F)(F)F)c(-c3cccc(C(=O)N(C)C)c3)cc2s1 (stereo not shown) [Example 175, 3-[2-({[(cyclopropyl-carbamoyl)methyl]carbamoyl} (propane-2-sulfonyl)methyl)-5-(trifluoromethyl)-1,3-benzothiazol-6-yl]-N,N-dimethyl-benzamide] | 37
8 | O=C(CNC(=O)C(c1nc2cc(F)c(-c3ccc(-n4cccn4)cc3)cc2s1)S(=O)(=O)CCC(F)(F)F)NC1CC1 (stereo not shown) [Example 138, N-[(cyclopropyl-carbamoyl)methyl]-2-{5-fluoro-6-[4-(1H-pyrazol-1-yl)phenyl]-1,3-benzothiazol-2-yl}-2-(3,3,3-trifluoropropane-sulfonyl) acetamide] | 6
9 | N#Cc1cccc(COC(=O)Nc2ccc(-c3cc4sc(C(C(=O)NCC(=O)NC5CC5)S(=O)(=O)C5CC5)nc4cc3F)cc2)c1 (stereo not shown) [Example 521, (3-cyanophenyl) methyl N-(4-{2-[(cyclopropane-sulfonyl) ({[(cyclopropyl-carbamoyl)methyl]carbamoyl}methyl]-5-fluoro-1,3-benzothiazol-6-yl}phenyl) carbamate] | 3
10 | COC(=O)Nc1ccc(-c2cc3sc(C(C(=O)NCC(=O)NC4CC4)S(=O)(=O)N4CCOCC4)nc3cc2F)cc1F (stereo not shown) [Example 488, methyl N-{4-[2-({[(cyclopropyl-carbamoyl)methyl]carbamoyl} (morpholine-4-sulfonyl)methyl)-5-fluoro-1,3-benzothiazol-6-yl]-2-fluorophenyl} carbamate] | 13
11 | CS(=O)(=O)C(C(=O)NCC(=O)NC1CC1)c1nc2ccc(-c3ccccc3)cc2s1 (stereo not shown) [Example 608, N-[(cyclopropyl-carbamoyl)methyl]-2-methanesulfonyl-2-(6-phenyl-1,3-benzothiazol-2-yl)acetamide] | 152
12 | COCCS(=O)(=O)C(C(=O)NCC(=O)NC1CC1)c1nc2cc(-c3ccnc(OC)c3)ccc2s1 (stereo not shown) [Example 74, N-[(cyclopropyl-carbamoyl)methyl]-2-(2-methoxyethane-sulfonyl)-2-[5-(2-methoxypyridin-4-yl)-1,3-benzothiazol-2-yl]acetamide] | 31
13 | O=C(CNC(=O)C(c1nc2ccc(-c3cncnc3)cc2s1)S(=O)(=O)c1ccccc1)NC1CC1 (stereo not shown) [Example 432, 2-(benzenesulfonyl)-N-[(cyclopropyl-carbamoyl)methyl]-2-[6-(pyrimidin-5-yl)-1,3-benzothiazol-2-yl]acetamide] | 61
14 | O=C(CNC(=O)C(c1nc2cc(F)c(-c3ccc(NC(=O)NCc4ccccc4)cc3)cc2s1)S(=O)(=O)CCC(F)(F)F)NC1CC1 (stereo not shown) [Example 511, 2-(6-{4-[(benzyl-carbamoyl)amino]phenyl}-5-fluoro-1,3-benzothiazol-2-yl)-N-[(cyclopropyl-carbamoyl)methyl]-2-(3,3,3-trifluoropropane-sulfonyl)acetamide] | 1
15 | CS(=O)(=O)C(C(=O)NCC(=O)NC1CC1)c1nc2cc(F)c(-c3cccc(NC(=O)OCc4ccccc4)c3)cc2s1 (stereo not shown) [Example 550, benzyl N-{3-[2-({[(cyclopropyl-carbamoyl)methyl]carbamoyl} (methanesulfonyl)methyl)-5-fluoro-1,3-benzothiazol-6-yl]phenyl} carbamate] | 1
16 | COCCS(=O)(=O)C(C(=O)NCC(=O)NC1CC1)c1nc2ccc(-c3ccnc(C(F)(F)F)c3)cc2s1 (stereo not shown) [Example 290, N-[(cyclopropyl-carbamoyl)methyl]-2-(2-methoxyethane-sulfonyl)-2-{6-[2-(trifluoromethyl)pyridin-4-yl]-1,3-benzothiazol-2-yl} acetamide] | 23
17 | O=C(CNC(=O)C(c1nc2cc(F)c(-c3ccc(NC(=O)OCc4ccccc4)nc3)cc2s1)S(=O)(=O)CCC(F)(F)F)NC1CC1 (stereo not shown) [Example 554, benzyl N-{5-[2-({[(cyclopropyl-carbamoyl)methyl]carbamoyl}(3,3,3-trifluoropropane-sulfonyl)methyl)-5-fluoro-1,3-benzothiazol-6-yl]pyridin-2-yl} carbamate] | 3
18 | CCOc1ncccc1-c1ccc2nc(C(C(=O)NCC(=O)NC3CC3)S(=O)(=O)CCOC)sc2c1 (stereo not shown) [Example 293, N-[(cyclopropyl-carbamoyl)methyl]-2-[6-(2-ethoxypyridin-3-yl)-1,3-benzothiazol-2-yl]-2-(2-methoxyethane-sulfonyl)acetamide] | 33

The next lines start with the values.

Row | IC50 [nM] | SMILES
19 | 12 | COc1cc(-c2cc3nc(C(C(=O)NCC(=O)NC4CC4)S(C)(=O)=O)sc3cc2F)ccn1 (stereo not shown) [Example 364, N-[(cyclopropyl-carbamoyl)methyl]-2-[6-fluoro-5-(2-methoxypyridin-4-yl)-1,3-benzothiazol-2-yl]-2-methanesulfonyl-acetamide]
20 | 18 | COCCS(=O)(=O)C(C(=O)NCC(=O)NC1CC1)c1nc2cc(-c3ccc(-c4ccn[nH]4)cc3)c(F)cc2s1 (stereo not shown) [Example 130, N-[(cyclopropyl-carbamoyl)methyl]-2-{6-fluoro-5-[4-(1H-pyrazol-5-yl)phenyl]-1,3-benzothiazol-2-yl}-2-(2-methoxyethane-sulfonyl) acetamide]
21 | 80 | COCCS(=O)(=O)C(C(=O)NCC(=O)NC1CC1)c1nc2c(F)cc(-c3cnc(C4CC4)nc3)cc2s1 (stereo not shown) [Example 223, N-[(cyclopropyl-carbamoyl)methyl]-2-[6-(2-cyclopropyl-pyrimidin-5-yl)-4-fluoro-1,3-benzothiazol-2-yl]-2-(2-methoxyethane-sulfonyl) acetamide]
22 | 34 | Cc1ncc(-c2cc3sc(C(C(=O)NCC(=O)NC4CC4)S(C)(=O)=O)nc3cc2F)cn1 (stereo not shown) [Example 194, N-[(cyclopropyl-carbamoyl)methyl]-2-[5-fluoro-6-(2-methylpyrimidin-5-yl)-1,3-benzothiazol-2-yl]-2-methanesulfonyl-acetamide]
23 | 13 | COCCS(=O)(=O)C(C(=O)NCC(=O)NC1CC1)c1nc2cc(-c3ccc(F)nc3)ccc2s1 (stereo not shown) [Example 385, N-[(cyclopropyl-carbamoyl)methyl]-2-[5-(6-fluoropyridin-3-yl)-1,3-benzothiazol-2-yl]-2-(2-methoxyethane-sulfonyl)acetamide]
24 | 145 | COCCS(=O)(=O)C(C(=O)NCC(=O)NC1CC1)c1nc2cc(-c3cccc(-c4nnn[nH]4)c3)c(F)cc2s1 (stereo not shown) [Example 133, N-[(cyclopropyl-carbamoyl)methyl]-2-{6-fluoro-5-[3-(1H-1,2,3,4-tetrazol-5-yl)phenyl]-1,3-benzothiazol-2-yl}-2-(2-methoxyethane-sulfonyl) acetamide]
25 | 7 | COCCS(=O)(=O)C(C(=O)NCC(=O)NC1CC1)c1nc2cc(F)c(-c3cnc(C4CC4)nc3)cc2s1 (stereo not shown) [Example 155, N-[(cyclopropyl-carbamoyl)methyl]-2-[6-(2-cyclopropyl-pyrimidin-5-yl)-5-fluoro-1,3-benzothiazol-2-yl]-2-(2-methoxyethane-sulfonyl) acetamide]
26 | 6 | COCCS(=O)(=O)C(C(=O)NCC(=O)NC1CC1)c1nc2cc(-c3cnc(C)nc3)c(F)cc2s1 (stereo not shown) [Example 346, N-[(cyclopropyl-carbamoyl)methyl]-2-[6-fluoro-5-(2-methylpyrimidin-5-yl)-1,3-benzothiazol-2-yl]-2-(2-methoxyethane-sulfonyl)acetamide]
27 | 97 | COCCS(=O)(=O)C(C(=O)NCC(=O)NC1CC1)c1nc2cc(-c3ccc(-c4nnn[nH]4)cc3)c(F)cc2s1 (stereo not shown) [Example 128, N-[(cyclopropyl-carbamoyl)methyl]-2-{6-fluoro-5-[4-(1H-1,2,3,4-tetrazol-5-yl)phenyl]-1,3-benzothiazol-2-yl}-2-(2-methoxyethane-sulfonyl) acetamide]
28 | 13 | CC(C)S(=O)(=O)C(C(=O)NCC(=O)NC1CC1)c1nc2cc(-c3ccc(F)nc3)c(F)cc2s1 (stereo not shown) [Example 263, N-[(cyclopropyl-carbamoyl)methyl]-2-[6-fluoro-5-(6-fluoropyridin-3-yl)-1,3-benzothiazol-2-yl]-2-(propane-2-sulfonyl)acetamide]

— US10173991B2, “Sulfone amide linked benzothiazole inhibitors of endothelial lipase” (BRISTOL-MYERS SQUIBB COMPANY, priority 2014, dated 2019)
